Tests used:
[1] = biological target: T1, FtsE (FtsEEc) (Escherichia coli, UniProt P0A9R7, K41A); test: MANT-ATP fluorescence binding; details: labelled compound; 25 mM HEPES pH 7.5, 50 mM KCl, 10 mM MgCl2; Walker A mutant
T1 construct: ftsE ORF in His-pBAD18; His-tagged, soluble, expressed in E. coli C41; Ni-NTA and two SEC rounds

[2] = biological target: T2, FtsE (FtsEEc) (Escherichia coli, UniProt P0A9R7); test: fluorescence titration, double reciprocal plot; format: binding
T2 construct: ftsE ORF in His-pBAD18; His-tagged, soluble, expressed in E. coli C41; Ni-NTA and two SEC rounds
T2 sequence (P0A9R7 1-222): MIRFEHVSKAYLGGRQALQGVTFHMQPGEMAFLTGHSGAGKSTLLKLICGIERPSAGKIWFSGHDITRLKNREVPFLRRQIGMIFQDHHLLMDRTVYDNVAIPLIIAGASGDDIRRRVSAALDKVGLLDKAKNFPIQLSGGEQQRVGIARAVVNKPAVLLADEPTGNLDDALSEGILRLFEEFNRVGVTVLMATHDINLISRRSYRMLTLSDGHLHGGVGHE

T1 sequence (P0A9R7 whole entry K41A): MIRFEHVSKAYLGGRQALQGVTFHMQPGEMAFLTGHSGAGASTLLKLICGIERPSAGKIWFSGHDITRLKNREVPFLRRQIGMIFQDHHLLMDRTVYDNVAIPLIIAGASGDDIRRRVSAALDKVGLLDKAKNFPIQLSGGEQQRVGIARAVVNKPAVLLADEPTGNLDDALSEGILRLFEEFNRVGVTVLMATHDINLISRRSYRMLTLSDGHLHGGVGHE

SMILES: CNc1ccccc1C(=O)O[C@H]1[C@@H](O)[C@H](n2cnc3c(N)ncnc32)O[C@@H]1COP(=O)(O)OP(=O)(O)OP(=O)(O)O [MANT-ATP]
- MANT-ATP fluorescence binding [1]: ATP binding affinity for FtsE^K41A, and it was found to be much lower than wildtype
- Kd [2]: 21.5 ± 2.2 nM

From article PMC7791547, “Biochemical characterization of an E. coli cell division factor FtsE shows ATPase cycles similar to the NBDs of ABC-transporters” (Bioscience Reports, 2021)
